Data on one molecule can be found in patent publication US7977364B2, “Indazoles, benzisoxazoles and benzisothiazoles and their use as estrogenic agents” (Laboratoire Thermamex, priority 2004, dated 2011).

The subject of assay [1] is human breast cancer cell line MCF-7. The experiment in a line: Proliferative activity in vitro (ATP luminescence, 6 days). It is filed as cell-based. The conditions noted are these: Homo sapiens, MCF7, 144 h. A digest of the protocol:
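Proliferative (estrogen-like) response of MCF-7 cells held in phenol red-free DMEM with 5% charcoal-stripped serum, seeded at 4.10^3 cells/well. Compounds in estrogen-free DMEM for six days at 37 °C. Viable cells by ATP luciferase luminescence as % of control; EC50 from sigmoidal dose-response curves.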

The next assay has as its system rats. Description: Forced swimming test (antidepressant activity, immobility duration). The format is in vivo, rat. The source says: Antidepressant effect of estradiol was recently reported in studies using ER β KO mice model. In addition, ER β localization in dorsal raphe nucleus area in rat has been described. The gold standard test for antidepressant potency of compound consist in the forced swimming test, in this experiment antidepressants could be distinguished from psychostimulants which decreased immobility at doses which increased general activity. In order to investigate the putative antidepressant potency of the compounds reported here, the forced swimming test was performed according to the following design. The animals were housed six per cage under standard colony conditions, with a 12 h light/dark cycle and ad libitum food and water. They were allowed to acclimatize to the colony for at least 7 days prior to any experimentation. For subcutaneous administration, the compound of Example 23 was dissolved in olive oil and diluted to the desired concentration on the day of administration. For positive control, intraperitoneal (i.p.) injection of desipramine was done. Desipramine was dissolved in double-distilled water (10 mg/kg). The experiments were conducted 30 min after the positive control drug treatment (only for desipramine treatment). Other compounds, ie: estradiol and the compound of Example 23 were daily injected subcutaneously in rats, during a 7 days period. Acquisition were performed on day 8 (24 h after the last administration of items) and day 9 (48 h after estradiol or compound 23 administration), respectively. Data acquired 24 hours after the last administration consisted in the “naïve animal group”, these animals had never been previously tested in the device. Data acquired 48 hours after a last administration of compounds consisted in “trained animal group”.
On the 8th, the forced swim test was performed. This study was carried out in rats according to the methods described by Porsolt (Eur. J. Pharm., 1978). Briefly, rats were placed individually in glass cylinders (height: 40 cm, diameter: 18 cm) containing 25 cm of water at 25° C. Ten minutes later, rats were removed and dried before being returned to their home cages. The animals were replaced in the cylinders 24 h later, and the procedure was repeated, and a 10-min observation period was recorded.

Turning to `Oc1ccc2c(C3CCCC3)n[nH]c2c1` [Ex 23, 3-cyclopentyl-1H-indazol-6-ol], the activity at 1 µM in assay [1] (MCF-7, 10^−6 M, six days, read-out: Effect at 10^−6 M (% of control)) was 176%. Moreover, the activity at 0.01 µM in assay [1] (MCF-7, 10^−8 M, six days, read-out: Effect at 10^−8 M (% of control)) came to 81.7%. For the same molecule, the EC50 in assay [1] (MCF-7, six days, read-out: Cell proliferation EC50 (nM) ± S.E.M) came to 376 ± 70.1 nM. The “immobility duration, Naïve animals” value in the assay on rats (2.8 mg/rat/day s.c. 7 days, 24 h after last administration, 10 minutes test) was 45.2 ± 15.6 s. Also, the “immobility duration, Trained animals” value with rats (2.8 mg/rat/day s.c. 7 days, 48 h after last administration, 10 minutes test) came out at 160.7 ± 44.1 s. In the assay with rats (24 h after administration, in words), the “antidepressor activity, animals first-in-the-test” value is “exhibited a antidepressor activity”. For the same molecule, in the assay on rats (48 h after administration, in words), the “antidepressor potency, trained animal group” value was “disappeared”.
